In patent US12161114B2, “Overpowered ABA receptor agonists” (The Regents of the University of California, priority 2018, dated 2024):

Columns and labels:
[1] = system: pooled ABA receptors (PYL1, PYL2, PYL4, PYL8, and maize receptor ZmPYLe) with PP2C HAB1; assay: pooled receptor activation assay (receptor/ligand-mediated inhibition of PP2C HAB1, 4-methylumbelliferyl phosphate); assay type: biochemical, Arabidopsis; maize; conditions: tested in duplicate at 20 μM
Excerpt: The angiosperm ABA receptor family is large and contains many receptors that cluster into 3 subfamilies. Multiple analyses have shown that agonists of subfamily III receptors are particularly efficacious as antitranspirants, however pan agonists or other new selective agonists may be valuable for crop enhancement. In principle, a docking hit molecule might interact with any or all ABA receptors, creating a large matrix of possible interactions and screening conditions. To expedite the process of screening for new ABA agonists, we developed a pooled receptor screening assay. To do this we selected phylogenetically diverse ABA receptors (PYL1, PYL2, PYL4, PYL8, and maize receptor ZmPYLe), pooled them, and assayed receptor/ligand-mediated inhibition of the PP2C HAB1. The Arabidopsis receptors and PP2C ΔN-HAB1 used were expressed and purified using previously described expression clones and methods (Okamoto et al.) PYL1, PYL2, PYL4, and PYL8 were expressed as 6×-His tags in pET28; ΔN-HAB1 was expressed as 6×-His tag as a truncated form lacking residues 1-179 in pETM-11. ZmPylE (GRMZM2G165567; ZmPYL8 in (He et al.)) was expressed as an MBP fusion protein in pMal-c and expressed and purified as described previously for PYL9 and PYL1 in reference (Okamoto et al.). Assays were conducted in a buffer containing 100 mM Tris-HCl-pH7.9, 100 mM NaCl, 30 μg/ml BSA, 0.1% 2-mercaptoethanol, 100 nM PYL1 and PYL2, 900 nM PYL4 and PYL8, 200 nM ZmPylE, 1 mM 4-methylumbelliferyl phosphate, and 20 μM test compound. The substrate was added ˜20 minutes after the other components had been mixed and fluorescence data collected after substrate addition using a Tecan Infinite F200 Pro fluorimeter. Control carrier solvent-only wells were included as a reference and %-PP2C activity calculated relative to this control. To validate this assay we tested multiple selective and pan-agonists to ensure that their activity could reliably be detected. […]

[2] = system: pyr1/pyl1, pyl8/pyl9 and abi1C mutants; assay: seed germination on receptor mutants and ABA signalling mutant abi1C; assay type: in vivo, Arabidopsis; conditions: tested at twice the EC50
Procedure: (§1) Prior to selecting a scaffold for optimization we conducted Arabidopsis seed germination assays to establish if the hits obtained are activity in vivo. Germination experiments were performed with surface sterilized wild type Columbia Arabidopsis thaliana seeds and abi1C (the abi1-1 allele isolated in the Columbia ecotype) plated onto 0.7% agar medium containing 1/2-x MS salts, 0.5% sucrose and differing concentrations of the test compounds. After 4d of stratification at 4° C., the plates were transferred to a growth chamber under continuous illumination and evaluated after 4 days.
Methods similar to example 3 were followed.

[3] = system: panel of recombinant ABA receptors; PP2C HAB1; assay: receptor-mediated PP2C inhibition assay, dose response, umbelliferone substrate; assay type: biochemical, Arabidopsis; conditions: 4 nM to 50 μM dose response
Procedure: Each ligand was tested at concentrations spanning 7 points between 4 nM and 50 μM in triplicate in a reaction buffer containing 100 mM Tris-HCl-pH7.9, 100 mM NaCl, 30 μg/ml BSA, 0.1% 2-mercaptoethanol, 25 nM ΔN-HAB1, 1 mM 4-methylumbelliferyl phosphate, and different recombinant ABA receptors at 50 nM or 300 nM (for PYL9 or PYL11). The substrate was added ˜20 minutes after the other components had been mixed and fluorescence data collected. Control carrier solvent-only wells were included as a reference and %-activity for tested compounds calculated relative to this control. The dose response data (PP2C activity versus agonist concentration) was fit to a log (inhibitor) vs. response-(variable slope) model using non-linear regression to infer the IC50S, using GraphPad Prism 6.0, to yield the IC50 values shown in FIG. 6.
The potency and selectivity of ligands 2b, 2e-f was established by testing their ability to activate multiple ABA receptor subtypes using the fluorescence based phosphasted assay as outlined in example 2 at a range of concentrations (4 nM to 50 μM). In addition, we compared ligand potency to ABA, quinabactin and a recently described fluorinated quinabactin analog AMF4, which is reported to have improved potency in comparison toe quinabactin. To conduct the assays purified recombinant receptors were tested at 50 nM or, in the a cases of PYL9 and PYL11, 300 nM and 25 nM ΔN-HAB1. The PP2C-activity dose response data obtained was fit to a log (inhibitor) vs response-(variable slope) model using non-linear regression to infer the IC50S, using GraphPad Prism 6.0, to yield IC50 values as shown in FIG. 12A. […] Moreover, the installation of a single cyclopropyl group ortho to the nitrile (analog 2e) provided a further boost in potency, dramatically so for all subfamily III receptors, PYL4 and PYL11. […] Furthermore, the installation of a second cyclopropyl substituent (analog 2f) provides an even further boot in activity on subfamily III receptors, which comes at the expense of reduced potency on subfamily I receptors. […] 2f is therefore an unusually overpowered ABA receptor agonist, which we refer to as opabactin (Opa).

[4] = system: wild type Columbia Arabidopsis thaliana seeds; assay: Arabidopsis seed germination assay; assay type: in vivo; conditions: Arabidopsis thaliana
Procedure: as §1
To establish if the in vitro potency of Opa translates into improved activity in vivo, we measured the effects of ABA, QB, AMF4, Opa and 2e on Arabidopsis seed germination at a range of concentrations to infer quantitative measures or potency. Methods similar to that described in Example 3 are followed. The percentage of germinated seeds were recorded for each chemical treatment for each concentration in quadruplicate. EC50 values denote the concentrations at which 50% of seeds have been inhibited.

PYL2 = target: T1, PYL2 (Arabidopsis thaliana, UniProt O80992); assay: receptor-mediated PP2C inhibition assay, pnPP substrate, PYL2; assay type: biochemical
T1 construct: 6xHis; made in house
T1 sequence (O80992 1-190): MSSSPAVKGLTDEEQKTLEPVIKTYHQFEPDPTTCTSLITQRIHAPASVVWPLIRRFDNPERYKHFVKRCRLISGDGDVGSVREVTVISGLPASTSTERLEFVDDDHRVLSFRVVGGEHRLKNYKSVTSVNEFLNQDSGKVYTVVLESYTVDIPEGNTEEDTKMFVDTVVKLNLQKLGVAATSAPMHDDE
T1 sequence (Q9CAJ0 180-511 partner): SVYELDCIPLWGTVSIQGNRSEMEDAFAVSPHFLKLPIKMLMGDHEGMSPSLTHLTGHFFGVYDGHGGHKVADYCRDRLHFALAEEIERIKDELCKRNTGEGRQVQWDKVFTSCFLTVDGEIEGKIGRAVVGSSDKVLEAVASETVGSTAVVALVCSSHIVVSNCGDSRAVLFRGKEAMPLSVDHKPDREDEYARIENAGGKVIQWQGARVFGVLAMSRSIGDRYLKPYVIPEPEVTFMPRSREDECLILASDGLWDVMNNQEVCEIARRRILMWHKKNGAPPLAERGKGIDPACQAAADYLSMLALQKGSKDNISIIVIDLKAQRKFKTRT
Procedure: The potency and selectivity of ligand 10H4, a relatively potent member of scaffold 2, was characterized in separate experiments using an absorbance-based assay using the colorimetric substrate p-nitrophenyl phosphate (pNPP), as follows. Purified proteins (100 nM receptor, 50 nM HAB1) were pre-incubated in 160 μl assay buffer containing (100 mM Tris-HCl-pH7.9, 100 mM NaCl, 0.3 μg/mL BSA, 0.1% 2-mercaptoethanol, and 1 mM MnCl2) with ligands for 30 minutes at room temperature. Reactions were started by adding 40 μL of 25 mM p-NPP in assay buffer after which absorbance measurements were immediately collected at 405 nm on Tecan plate reader. The concentrations tested spanned 4 nM to 10 μM and the dose response data obtained was fit to a log (inhibitor) vs response-(variable slope) model using non-linear regression to infer the IC50S, using GraphPad Prism, to yield the IC50 values shown in FIG. 7.
8, no. 1, October 2017, p. 1183. • Daszkowska-Golec, Agata. […]

Row | activity in the pooled receptor assay [1] | SMILES | effect on germination in receptor mutant backgrounds [2] | further results
1 | active | CCCN1C(=O)CCc2cc(NS(=O)(=O)Cc3ccc(C)cc3)ccc21 [quinabactin] | only show diminished activity in the pyr1/pyl1 mutant | –
2 | active | O=S(=O)(NCc1ccccn1)c1ccc(Br)c2ccccc12 [pyrabactin] | – | –
3 | – | N#Cc1ccc(CC(=O)NC2(C(=O)O)CCCCC2)cc1C1CC1 [2e, 1-[2-(4-cyano-3-cyclopropylphenyl)acetamido]cyclohexane-1-carboxylic acid] | clearly reduced in the pyr1/pyl1 and pyl8/pyl9 mutant backgrounds | potency in receptor-mediated PP2C inhibition (in words) [3]: high potency across all receptors tested; test concentration (twice the EC50 for germination inhibition) ([4]; printed value is twice the EC50, used as test concentration on mutants, read-out: twice the concentrations determined as its EC50 (inhibition of germination) (converted)): 0.22 µM
4 | – | CS(=O)(=O)NC(=O)C1(NC(=O)Cc2ccc(C#N)c(C3CC3)c2)CCCCC1 [2r] | – | activity on PYL2 (in words) (PYL2): modestly activity on PYL2
5 | – | N#Cc1ccc(CC(=O)NC2(C(=O)O)CCCCC2)cc1 [2b, 1-[2-(4-cyanophenyl)acetamido]cyclohexane-1-carboxylic acid] | – | potency in receptor-mediated PP2C inhibition (in words) [3]: dramatically improves activity across all receptors tested
6 | – | CCCN1C(=O)CCc2cc(NS(=O)(=O)Cc3c(F)c(F)c(C)c(F)c3F)ccc21 [AMF4] | only show diminished activity in the pyr1/pyl1 mutant | –

Row | SMILES | activity in the pooled receptor assay [1] | effect on germination in receptor mutant backgrounds [2] | further results
7 | CC1=CC(=O)CC(C)(C)[C@@]1(O)/C=C/C(C)=C\C(=O)O [ABA, Abscisic acid] | active | clearly reduced in the pyr1/pyl1 and pyl8/pyl9 mutant backgrounds | EC50 ([4]; read-out: twice the concentrations determined as its EC50 (inhibition of germination)): 0.6 µM
